One test has as its target Serotonin 5-HT6 (Homo sapiens, UniProt P50406). Nature of the test: PDSP binding screen.
For a further test, the target named is T1, Adrenergic alpha1A (Homo sapiens, UniProt P35348).
T1 sequence (P35348 1-466): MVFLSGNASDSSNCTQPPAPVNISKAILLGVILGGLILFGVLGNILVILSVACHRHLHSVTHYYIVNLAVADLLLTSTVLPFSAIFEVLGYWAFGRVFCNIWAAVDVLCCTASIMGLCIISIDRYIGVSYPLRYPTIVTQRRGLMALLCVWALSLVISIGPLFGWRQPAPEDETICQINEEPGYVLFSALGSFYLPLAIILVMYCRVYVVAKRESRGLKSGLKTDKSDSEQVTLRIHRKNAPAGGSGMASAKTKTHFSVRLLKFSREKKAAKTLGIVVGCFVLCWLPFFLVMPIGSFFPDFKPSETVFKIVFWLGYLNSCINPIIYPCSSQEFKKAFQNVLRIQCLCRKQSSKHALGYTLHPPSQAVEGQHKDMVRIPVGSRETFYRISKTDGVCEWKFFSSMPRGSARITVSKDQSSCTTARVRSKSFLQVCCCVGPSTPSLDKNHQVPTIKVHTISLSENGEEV
The experiment in a line: PDSP binding screen. The conditions noted are these: for inhibition at 10 µM: read-out: Ki (nM) or % inhibition at 10 µM: alpha1A.

A further test addresses Adrenergic beta3 (Homo sapiens, UniProt P13945). The experiment in a line: PDSP binding screen. The conditions noted are these: for inhibition at 10 µM: read-out: Ki (nM) or % inhibition at 10 µM: beta3.
The next test concerns the target Dopamine D2 (Homo sapiens, UniProt P14416). The experiment in a line: PDSP binding screen.
For the next test, the target named is Histamine H1 (Homo sapiens, UniProt P35367). The experiment in a line: PDSP binding screen.
The target of a further test is T2, Muscarinic M4 (Homo sapiens, UniProt P08173).
T2 sequence (P08173 1-479): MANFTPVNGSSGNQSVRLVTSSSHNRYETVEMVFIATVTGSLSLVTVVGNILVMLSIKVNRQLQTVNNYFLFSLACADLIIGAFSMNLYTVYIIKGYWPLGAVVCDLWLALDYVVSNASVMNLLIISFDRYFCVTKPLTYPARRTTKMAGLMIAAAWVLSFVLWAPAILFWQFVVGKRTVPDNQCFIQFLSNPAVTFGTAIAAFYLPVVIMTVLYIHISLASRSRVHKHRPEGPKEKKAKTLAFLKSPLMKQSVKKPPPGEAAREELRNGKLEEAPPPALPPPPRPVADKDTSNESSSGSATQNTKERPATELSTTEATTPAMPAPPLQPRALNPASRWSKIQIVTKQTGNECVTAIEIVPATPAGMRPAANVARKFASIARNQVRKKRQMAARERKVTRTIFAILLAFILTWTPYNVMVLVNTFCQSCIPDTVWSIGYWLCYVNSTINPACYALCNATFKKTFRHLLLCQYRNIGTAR
Nature of the test: PDSP binding screen. Particulars: for inhibition at 10 µM: read-out: Ki (nM) or % inhibition at 10 µM: M4.

The target in a further test is T3, Muscarinic M5 (Homo sapiens, UniProt P08912).
T3 sequence (P08912 1-532): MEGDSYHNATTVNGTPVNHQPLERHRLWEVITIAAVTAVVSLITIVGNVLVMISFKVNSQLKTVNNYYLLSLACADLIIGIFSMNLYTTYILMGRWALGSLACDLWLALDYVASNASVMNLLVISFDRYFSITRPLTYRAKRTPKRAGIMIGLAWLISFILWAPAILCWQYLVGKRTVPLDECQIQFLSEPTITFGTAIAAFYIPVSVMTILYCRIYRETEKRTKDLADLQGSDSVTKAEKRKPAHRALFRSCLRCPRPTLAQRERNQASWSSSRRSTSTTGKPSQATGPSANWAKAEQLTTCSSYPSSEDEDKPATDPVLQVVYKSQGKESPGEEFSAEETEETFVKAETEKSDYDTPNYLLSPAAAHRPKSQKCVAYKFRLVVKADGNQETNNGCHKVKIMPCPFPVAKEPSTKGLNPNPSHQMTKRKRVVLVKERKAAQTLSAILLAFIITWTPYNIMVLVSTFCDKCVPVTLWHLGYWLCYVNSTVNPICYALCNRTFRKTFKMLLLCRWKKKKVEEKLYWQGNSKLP
The experiment in a line: PDSP binding screen. The conditions noted are these: for inhibition at 10 µM: read-out: Ki (nM) or % inhibition at 10 µM: M5.

Another test has as its target BZP Rat Brain Site. Nature of the test: PDSP binding screen. The conditions noted are these: HCl salts.
For a further test, the target named is GABAA. Nature of the test: PDSP binding screen. Particulars: HCl salts.
For test [1], the target named is Dopamine active transporter (DAT) (Homo sapiens, UniProt Q01959). Nature of the test: PDSP binding screen.
In a further test the target is human D3 receptors (Homo sapiens, UniProt P35462). The experiment in a line: β-arrestin recruitment assay (antagonist mode, competition with dopamine). The class given is cell-based. More on the design: expressed in transfected cells. Particulars: for Emax: percentage of the maximum inhibition of dopamine at EC80 concentration, read-out: Imax (% Control). On the procedure:
Two different assays were used to evaluate the properties of the analogs described above. The receptor binding affinity was measured by radioligand binding assays using [^125I]IABN with D2 or D3 receptors highly expressed HEK293 cells. The functional activity of the analogs was determined using a β-arrestin recruitment assay. The assay was initially conducted in agonist binding mode to confirm that they function as antagonists at the D3 receptor. Once this efficacy was confirmed, the assay was conducted in antagonist mode to determine the ability of the antagonist to compete with dopamine at the D3 receptor. The results of the antagonist mode assay are reported as IC50 values.
CHO-K1 cells which were overexpressed human D3 receptors were cultured in assaycomplete^TM cell culture kit 107. Cells were seeded at a density of 25,000 cells per well of 96-well plate, and incubated at 5% CO2, 37 °C. Two days later, test compounds were dissolved in DMSO, and diluted with 11-point series in phosphate-buffered saline (PBS). Prepared compounds were added to the cells, and it was incubated for 30 min at 5% CO2, 37 °C. Then, cells were treated with 30 nM (EC80) of dopamine, and the plate was incubated another 90 min. PathHunter^TM detection reagent was added to each well, and then plate was incubated for 80 min at RT in the dark. The chemiluminescent signal was measured by PerkinElmer Enspire plate reader (PerkinElmer, Boston, MA). Data were analyzed by Prism followed by non-linear regression.

Where [2] appears, read: potency for D3 receptors, CHO-K1 cells, vs 30 nM (EC80) dopamine, mean ± SD, three experiments, read-out: IC50.

Like-named read-outs stand apart in the source and are kept apart here.

The values that follow come from article PMC9820167, “Design and Synthesis of Conformationally Flexible Scaffold as Bitopic Ligands for Potent D3-Selective Antagonists” (International Journal of Molecular Sciences, 2022).

Serotonin 5-HT6, sequence (P50406 whole entry): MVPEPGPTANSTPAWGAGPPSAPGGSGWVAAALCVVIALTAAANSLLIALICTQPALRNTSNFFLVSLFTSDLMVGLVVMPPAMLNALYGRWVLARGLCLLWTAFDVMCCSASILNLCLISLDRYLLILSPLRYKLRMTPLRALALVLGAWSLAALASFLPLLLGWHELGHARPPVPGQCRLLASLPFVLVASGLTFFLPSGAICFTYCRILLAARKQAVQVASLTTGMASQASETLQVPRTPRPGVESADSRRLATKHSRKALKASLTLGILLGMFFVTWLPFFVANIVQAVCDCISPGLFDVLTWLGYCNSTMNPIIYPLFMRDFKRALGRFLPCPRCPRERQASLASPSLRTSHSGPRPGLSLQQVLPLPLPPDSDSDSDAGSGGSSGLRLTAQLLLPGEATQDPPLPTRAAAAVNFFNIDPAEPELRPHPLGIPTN
Dopamine D2, sequence (P14416 whole entry): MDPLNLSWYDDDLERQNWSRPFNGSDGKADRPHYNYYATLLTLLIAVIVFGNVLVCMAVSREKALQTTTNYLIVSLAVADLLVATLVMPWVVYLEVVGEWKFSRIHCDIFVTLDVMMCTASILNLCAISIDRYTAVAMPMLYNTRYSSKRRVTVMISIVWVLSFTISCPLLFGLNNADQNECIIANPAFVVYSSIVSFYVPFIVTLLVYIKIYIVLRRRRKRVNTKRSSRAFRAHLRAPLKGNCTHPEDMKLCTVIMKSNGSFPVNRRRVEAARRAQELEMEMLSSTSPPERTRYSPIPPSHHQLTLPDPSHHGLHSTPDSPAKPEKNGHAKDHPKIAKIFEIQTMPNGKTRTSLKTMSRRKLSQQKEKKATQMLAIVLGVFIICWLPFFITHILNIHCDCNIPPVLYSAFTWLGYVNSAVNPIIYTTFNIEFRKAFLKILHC
Adrenergic beta3, sequence (P13945 whole entry): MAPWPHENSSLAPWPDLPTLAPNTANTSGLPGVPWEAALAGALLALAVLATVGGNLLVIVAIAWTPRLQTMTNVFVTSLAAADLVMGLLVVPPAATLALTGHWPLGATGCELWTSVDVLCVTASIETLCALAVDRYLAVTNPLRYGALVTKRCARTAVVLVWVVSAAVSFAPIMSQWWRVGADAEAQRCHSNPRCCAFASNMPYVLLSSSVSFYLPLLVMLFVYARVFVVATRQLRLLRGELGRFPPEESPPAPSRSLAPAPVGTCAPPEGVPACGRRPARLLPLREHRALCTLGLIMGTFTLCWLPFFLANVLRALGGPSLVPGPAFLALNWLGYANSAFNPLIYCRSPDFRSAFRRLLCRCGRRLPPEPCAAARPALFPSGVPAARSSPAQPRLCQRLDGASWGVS
Dopamine active transporter (DAT), sequence (Q01959 whole entry, species assumed): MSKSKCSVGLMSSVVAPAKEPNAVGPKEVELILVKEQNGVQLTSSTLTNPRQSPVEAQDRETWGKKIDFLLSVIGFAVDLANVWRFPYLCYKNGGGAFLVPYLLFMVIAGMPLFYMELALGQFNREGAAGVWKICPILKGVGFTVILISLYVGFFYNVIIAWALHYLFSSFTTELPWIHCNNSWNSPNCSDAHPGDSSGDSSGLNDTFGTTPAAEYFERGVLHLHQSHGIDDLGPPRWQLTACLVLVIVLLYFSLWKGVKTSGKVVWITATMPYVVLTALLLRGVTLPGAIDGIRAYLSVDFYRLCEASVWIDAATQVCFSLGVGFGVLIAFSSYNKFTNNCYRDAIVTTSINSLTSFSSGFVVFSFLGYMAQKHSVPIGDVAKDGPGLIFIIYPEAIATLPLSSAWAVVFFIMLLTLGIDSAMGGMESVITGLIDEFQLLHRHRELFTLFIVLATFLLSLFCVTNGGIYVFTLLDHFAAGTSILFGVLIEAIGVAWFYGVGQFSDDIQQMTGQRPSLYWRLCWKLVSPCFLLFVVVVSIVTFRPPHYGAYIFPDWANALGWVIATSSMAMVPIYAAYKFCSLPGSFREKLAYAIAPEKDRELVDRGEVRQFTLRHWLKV
Histamine H1, sequence (P35367 whole entry): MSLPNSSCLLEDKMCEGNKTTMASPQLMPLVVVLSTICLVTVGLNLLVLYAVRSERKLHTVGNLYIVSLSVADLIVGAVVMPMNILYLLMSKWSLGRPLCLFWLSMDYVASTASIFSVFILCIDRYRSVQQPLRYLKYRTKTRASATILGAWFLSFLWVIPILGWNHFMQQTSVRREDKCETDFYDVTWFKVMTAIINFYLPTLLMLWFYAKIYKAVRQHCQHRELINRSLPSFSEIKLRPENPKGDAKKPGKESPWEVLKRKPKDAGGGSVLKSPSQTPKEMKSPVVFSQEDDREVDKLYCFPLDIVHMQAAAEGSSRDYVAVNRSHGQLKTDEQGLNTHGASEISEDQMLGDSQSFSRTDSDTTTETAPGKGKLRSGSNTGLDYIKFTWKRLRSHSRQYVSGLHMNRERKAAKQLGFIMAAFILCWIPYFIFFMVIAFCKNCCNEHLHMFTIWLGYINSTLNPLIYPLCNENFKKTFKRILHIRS
human D3 receptors, sequence (P35462 whole entry): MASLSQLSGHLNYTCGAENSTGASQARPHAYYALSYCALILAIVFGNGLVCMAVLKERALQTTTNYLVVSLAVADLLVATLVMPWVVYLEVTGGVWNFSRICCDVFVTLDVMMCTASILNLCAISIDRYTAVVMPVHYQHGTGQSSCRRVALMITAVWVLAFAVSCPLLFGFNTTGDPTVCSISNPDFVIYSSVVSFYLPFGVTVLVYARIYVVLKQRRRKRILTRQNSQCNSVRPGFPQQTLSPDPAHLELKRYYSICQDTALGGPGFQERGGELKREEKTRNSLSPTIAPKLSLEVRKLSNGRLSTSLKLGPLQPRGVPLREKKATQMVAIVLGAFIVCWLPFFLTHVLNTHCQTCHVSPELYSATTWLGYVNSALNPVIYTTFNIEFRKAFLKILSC

Regarding `CCN(CCCNC(=O)c1ccc(-c2cccs2)cc1)CCNC(=O)c1cc(Br)cc(OC)c1OC` [9a, 5-Bromo-N-(2-(ethyl(3-(4-(thiophen-2-yl)benzamido)propyl)amino)ethyl)-2,3-dimethoxybenzamide], the Ki on Serotonin 5-HT6 was determined as 287 nM; on Adrenergic beta3, 1500 nM; on Dopamine D2, 232 nM; at Histamine H1, 1490 nM; on Muscarinic M4, 1600 nM; on Muscarinic M5 it was 5040 nM. Moreover, the affinity in [1] corresponds to a Ki of 87 nM. The inhibition at 10 µM at Adrenergic alpha1A was < 50%. The “Ki (nM) or % inhibition at 10 µM: BZP Rat Brain Site” value on BZP Rat Brain Site is given as “N/A (N/A; not active means less than 50% inhibition that was obtained in primary binding assay at 10 µM of the compound)”. The “Ki (nM) or % inhibition at 10 µM: GABAA” value at GABAA is “N/A (N/A; not active means less than 50% inhibition that was obtained in primary binding assay at 10 µM of the compound)”. On human D3 receptors, the half-maximal inhibitory concentration (IC50) came out at 14 ± 7.4 nM. Moreover, on human D3 receptors, the Emax turned out to be 67.3 ± 18.9%.

For `CCCN(CCCNC(=O)c1ccc(-c2cccs2)cc1)CCNC(=O)c1cc(Br)cc(OC)c1OC` [20a, 5-Bromo-2,3-dimethoxy-N-(2-(propyl(3-(4-(thiophen-2-yl)benzamido)propyl)amino)ethyl)benzamide], the Ki at Serotonin 5-HT6 was 258 nM; on Adrenergic alpha1A it was 2210 nM; on Adrenergic beta3, 1390 nM; on Dopamine D2, 185 nM; on Histamine H1, 1360 nM; in test [1], 511 nM. In addition, the inhibition at 10 µM on Muscarinic M4 and at Muscarinic M5 was < 50% in each case. Further, the “Ki (nM) or % inhibition at 10 µM: BZP Rat Brain Site” value at BZP Rat Brain Site is “N/A (N/A; not active means less than 50% inhibition that was obtained in primary binding assay at 10 µM of the compound)”. In addition, the “Ki (nM) or % inhibition at 10 µM: GABAA” value on GABAA is “N/A (N/A; not active means less than 50% inhibition that was obtained in primary binding assay at 10 µM of the compound)”. Besides, the Emax on human D3 receptors was 88.1 ± 20.4%. For the same compound, the IC50 on human D3 receptors (setting [2]) was 26.5 ± 12.9 nM.

Consider `CCN(CCCNC(=O)c1ccc2ccccc2c1)CCNC(=O)c1cc(Br)cc(OC)c1OC` [21a, N-(3-((2-(5-Bromo-2,3-dimethoxybenzamido)ethyl)(ethyl)amino)propyl)-2-naphthamide], for which the Ki at Serotonin 5-HT6 stood at 730 nM; on Adrenergic beta3 it was 4530 nM; at Dopamine D2 it was 216 nM; on Histamine H1, 1510 nM; in [1], 89 nM. For the same compound, the inhibition at 10 µM on Adrenergic alpha1A, at Muscarinic M4 and on Muscarinic M5 was < 50% each time. Further, the “Ki (nM) or % inhibition at 10 µM: BZP Rat Brain Site” value at BZP Rat Brain Site is recorded as “N/A (N/A; not active means less than 50% inhibition that was obtained in primary binding assay at 10 µM of the compound)”. The “Ki (nM) or % inhibition at 10 µM: GABAA” value on GABAA was “N/A (N/A; not active means less than 50% inhibition that was obtained in primary binding assay at 10 µM of the compound)”. In addition, the Emax on human D3 receptors worked out at 66.1 ± 17.6%. In addition, at human D3 receptors (setting [2]), the IC50 amounted to 16.4 ± 7.7 nM.

Regarding `CCN(CCCNC(=O)c1ccc(-c2ccncc2)cc1)CCNC(=O)c1cc(Br)cc(OC)c1OC` [21c, 5-Bromo-N-(2-(ethyl(3-(4-(pyridin-4-yl)benzamido)propyl)amino)ethyl)-2,3-dimethoxybenzamide], the inhibition constant (Ki) at Serotonin 5-HT6 was 1860 nM; at Dopamine D2, 74 nM; on Histamine H1, 591 nM; at Muscarinic M4, 930 nM; on Muscarinic M5 it was 2390 nM; in test [1] it was 57 nM. The inhibition at 10 µM on Adrenergic alpha1A and at Adrenergic beta3 was < 50% throughout. The “Ki (nM) or % inhibition at 10 µM: BZP Rat Brain Site” value at BZP Rat Brain Site is on record as “N/A (N/A; not active means less than 50% inhibition that was obtained in primary binding assay at 10 µM of the compound)”. Besides, at GABAA, the “Ki (nM) or % inhibition at 10 µM: GABAA” value is reported as “N/A (N/A; not active means less than 50% inhibition that was obtained in primary binding assay at 10 µM of the compound)”. Besides, the Emax at human D3 receptors worked out at 78.2 ± 18%. The IC50 at human D3 receptors (setting [2]) came to 1.3 ± 1 nM.

With `CCN(CCCNC(=O)c1cc2ccccc2[nH]1)CCNC(=O)c1cc(Br)cc(OC)c1OC` [21d, N-(3-((2-(5-Bromo-2,3-dimethoxybenzamido)ethyl)(ethyl)amino)propyl)-1H-indole-2-carboxamide], the inhibition constant (Ki) on Serotonin 5-HT6 was 1630 nM; on Dopamine D2 it was 89 nM; on Histamine H1, 0.95 nM; at Muscarinic M5, 4220 nM; in test [1], 90 nM. In addition, the inhibition at 10 µM at Adrenergic alpha1A, on Adrenergic beta3 and at Muscarinic M4 was < 50% in each case. Besides, the “Ki (nM) or % inhibition at 10 µM: BZP Rat Brain Site” value at BZP Rat Brain Site is “N/A (N/A; not active means less than 50% inhibition that was obtained in primary binding assay at 10 µM of the compound)”. Besides, the “Ki (nM) or % inhibition at 10 µM: GABAA” value on GABAA is given as “N/A (N/A; not active means less than 50% inhibition that was obtained in primary binding assay at 10 µM of the compound)”. Further, the Emax on human D3 receptors was 57.7 ± 26.9%. In addition, the IC50 at human D3 receptors (setting [2]) stood at 9.3 ± 12 nM.

With `CCN(CCCNC(=O)c1cn2ccccc2n1)CCNC(=O)c1cc(Br)cc(OC)c1OC` [21e, N-(3-((2-(5-Bromo-2,3-dimethoxybenzamido)ethyl)(ethyl)amino)propyl)imidazo[1,2-a]pyridine-2-carboxamide], the values for the Ki at Serotonin 5-HT6, on Adrenergic beta3 and on Histamine H1 were 2330 nM, 5560 nM and 675 nM, respectively. Moreover, the inhibition at 10 µM (on Adrenergic alpha1A; on Dopamine D2 (read-out: Ki (nM) or % inhibition at 10 µM: D2); at Muscarinic M4; on Muscarinic M5; in test [1] (read-out: Ki (nM) or % inhibition at 10 µM: Dopamine active transporter (DAT))) was < 50% each time. For the same compound, the “Ki (nM) or % inhibition at 10 µM: BZP Rat Brain Site” value at BZP Rat Brain Site is recorded as “N/A (N/A; not active means less than 50% inhibition that was obtained in primary binding assay at 10 µM of the compound)”. In addition, the “Ki (nM) or % inhibition at 10 µM: GABAA” value on GABAA is listed as “N/A (N/A; not active means less than 50% inhibition that was obtained in primary binding assay at 10 µM of the compound)”. Besides, the Emax at human D3 receptors was 85.4 ± 6%. For the same compound, the IC50 at human D3 receptors (setting [2]) stood at 4.3 ± 2.5 nM.

The Ki is the equilibrium dissociation constant of an inhibitor or competing ligand from its target. Low readings indicate a stronger hold on the target, high ones a looser hold on the target. As a reminder, the inhibition is the share of the control response that was lost under treatment. As usually defined, the IC50 is the concentration that gives 50% inhibition.
